Assay results published in patent publication US10159697B2, “Methods for enhancing hematopoietic stem/progenitor cell engraftment” (CHILDREN'S MEDICAL CENTER CORPORATION, priority 2009, dated 2018).

System: hematopoietic stem and/or progenitor cell engraftment
Assay: adult zebrafish whole kidney marrow competitive transplantation assay
Format: in vivo
Conditions: for engraftment signal in pilot screen of 10 bioactive compounds: by four weeks post transplant, 10 recipients per treatment; for average G/R / percentage of positive recipients: green marrow cells incubated in vitro for 4 hrs, mixed with red marrow 1:4, 4 wpt, compared with DMSO control; for engraftment: in vitro incubation of green marrow with 10 μM dmPGE2 or 0.5 μM BIO at room temperature for 2-4 hours, by 4 weeks post transplant
Source text: A transparent adult zebrafish, casper, was used as a transplantation recipient. Casper is a double homozygous pigment mutant for the nacre allele (devoid of melanocytes) and the roy allele (devoid of iridophores and reduced melanoyctyes), which allows direct visualization of GFP labeled hematopoietic stem cell homing and engraftment without killing the recipients. Two marrows are used: Tg(β-actin:GFP) and Red GloFish® respectively to compete with each other at varying ratios e.g., 1:4, which can generate robust competition between the two donors. In one embodiment, the red marrow is the competitor, as well as an internal control for the transplant. At different timepoints post-transplant, the recipients are anesthetized and two pictures for each recipient are taken by a fluorescence stereomicroscope with GFP/DsRed filters individually. Images are analyzed by software, such as ImageJ, which can quantify the GFP/DsRed fluorescence intensity. The relative engraftment efficiency of the manipulated green marrow is measured by the ratio of the GFP intensity over the DsRed intensity within the same kidney region after background subtraction (labeled as G/R).
A double-color labeled competitive transplantation assay was developed, as shown by the flow chart in FIG. 1A. GFP+ and DsRed2+ marrow cells are isolated from Tg(β-actin:GFP) and commercially available Red GloFish®. The two donor populations are mixed at a certain ratio and injected into sublethally irradiated casper recipients retro-orbitally. The DsRed2+ marrow is used as the competitor. Four weeks later, the engraftment is visualized by fluorescence dissection scope. Pictures of GFP and DsRed engraftment are taken for each recipient and analyzed by ImageJ. The kidney region is manually selected and the average fluorescence intensities of both green and red are measured within the same region. The average background intensity is measured in a region outside the fish, and subtracted from the kidney intensity. The calculation of the relative engraftment is shown by the equation in FIG. 1B.
Adult zebrafish donors are anaesthetized with 0.2% tricaine before blood and kidney collection. Peripheral blood is obtained from adult casper by cardiac puncture with micropipette tips coated with heparin and collected into 0.9×PBS containing 5% FCS. About 3-5 million red blood cells are harvested from one donor. To dissect whole kidney marrow (WKM), a ventral midline incision is made on the donor fish. Whole kidney is dissected out and placed into ice-cold 0.9×PBS containing 5% FCS. Single-cell suspensions are generated by aspiration followed by filtering through a […] nylon mesh filter into a 50 ml conical tube. The flow-though part is diluted with a final volume of 25 ml and centrifuged at 1,500 rpm for 8 minutes. The supernatant is discarded and the pellet cells are resuspended in 1 ml 0.9×PBS containing 5% FCS. The number of viable cells are counted with a hemocytometer. […] Finally, the peripheral blood and kidney marrow cells are centrifuged at 1,500 rpm for 8 minutes, resuspended in 0.9×PBS containing 5% FCS and mixed at a certain ratio and concentration. Casper recipients are anesthetized in tricaine. 4 μl of the cell suspension mixture described above is injected into the circulation retro-orbitally through a Hamilton syringe (26 s gauge, 10 μl volume). […] Transplanted recipients can be anesthetized in tricaine and visualized over time on a Zeiss Discovery V8 stereomicroscope with a 1.2× PlanApo lens and GFP/DsRed filters. Images are captured using AxioVision software and for each recipient, two images are taken with GFP or DsRed filter respectively. The images are all saved in .tif format and analyzed using ImageJ software.

Row | SMILES | score in the competitive transplant model (at 3 months) | score in the competitive transplant model (at 4 weeks) | engraftment signal in pilot screen of 10 bioactive compounds | average G/R | percentage of positive recipients | engraftment
1 | O=C1Nc2cc(Br)ccc2C1=C1Nc2ccccc2C1=NO [BIO, 6-bromorindirubin-3′-oxime] | score positive | score positive | enhanced signal above the rest of the chemicals tested | significantly increased | significantly increased | increase engraftment
2 | CCCCC(C)(C)[C@H](O)/C=C/[C@H]1[C@H](O)CC(=O)[C@@H]1C/C=C\CCCC(=O)O [dmPGE2, 16-,16-dimethyl Prostaglandin E2] | score positive | score positive | enhanced signal above the rest of the chemicals tested | significantly increased | significantly increased | increase engraftment
